# pIC50: −log10 of the molar value.
# Columns and labels:
# [1] = tested on: NCI-H460; experiment: Cancer cell growth inhibition, NCI-H460; type: cell-based, human; settings: NCI-H460, Lung Cancer, 72 h treatment
# Method: (§1) Cell culture-based assays were used to evaluate the ability of compounds of the invention to inhibit cancer cell growth inhibition.
# (§2) Cells were obtained from the American Type Culture Collection (ATCC). Cells were cultured at 37° C. with 5% CO2 in the appropriate growth medium (see table below), and harvested respectively during the logarithmic growth period and counted with hemocytometer. The cell viability was over 98% by trypan blue exclusion. Cell concentrations were adjusted between 5×10^4 and 2×10^5 cells/ml with respective medium.
# (§3) Stock solutions of test compounds and positive drugs Doxorubicin (Zhejiang, Haizheng, China), Paclitaxel (Beijing, Xiehe, China), Vincristin (Shenzhen Wanle, China), 5-FU (Tianjin jinyaoanjisuan, China), Irinotecan (Jiangsu Hengrui, China) and Cisplatin Nanjing zhiyao, China) were prepared in dimethyl sulphoxide (DMSO) or PBS at 20 mM.
# (§4) All treatments were performed in triplicate. 10 μl drug solution was added to each well and incubated for 72 hours. At the end of the incubation, 20 μl of the freshly prepared MTS/PMS mixture solution was added to each well and incubated for 4 hours at 37° C. in a humidified, 5% CO2 atmosphere. Absorbance was read at 490 nm using SpectraMAX Plus microplate spectrophotometer. […] In order to calculate IC50, a dose-responsive curve was fitted using nonlinear regression model with a sigmoidal dose response.
# [2] = tested on: SK-OV-3; experiment: Cancer cell growth inhibition, SK-OV-3; type: cell-based, human; settings: SK-OV-3, Ovarian Cancer, 72 h treatment
# Method: as §1, §2, §3, §4
# [3] = tested on: RPMI-8226; experiment: Cancer cell growth inhibition, RPMI-8226; type: cell-based, human; settings: RPMI-8226, Orthotopic Multiple Myeloma, 72 h treatment
# Method: as §1, §2, §3, §4
# [4] = tested on: SK-MES-1; experiment: Cancer cell growth inhibition, SK-MES-1; type: cell-based, human; settings: SK-MES-1, Lung Cancer, 72 h treatment
# Method: as §1, §2, §3, §4
# [5] = tested on: NCI-N87; experiment: Cancer cell growth inhibition, NCI-N87; type: cell-based, human; settings: NCI-N87, Gastric Cancer, 72 h treatment
# Method: as §1, §2, §3, §4
# [6] = tested on: SK-MEL-5; experiment: Cancer cell growth inhibition, SK-MEL-5; type: cell-based, human; settings: SK-MEL-5, Melanoma, 72 h treatment
# Method: as §1, §2, §3, §4
# [7] = tested on: 786-O; experiment: Cancer cell growth inhibition, 786-O; type: cell-based, human; settings: Kindney Cancer, 72 h treatment
# Method: as §1, §2, §3, §4
# [8] = tested on: A549; experiment: Cancer cell growth inhibition, A549; type: cell-based, human; settings: A549, Lung Cancer, 72 h treatment
# Method: as §1, §2, §3, §4
# [9] = tested on: Bx-PC-3; experiment: Cancer cell growth inhibition, Bx-PC-3; type: cell-based, human; settings: Bx-PC-3, Pancreatic Cancer, 72 h treatment
# Method: as §1, §2, §3, §4
# [10] = tested on: NCI-H226; experiment: Cancer cell growth inhibition, NCI-H226; type: cell-based, human; settings: NCI-H226, Lung Cancer, 72 h treatment
# Method: as §1, §2, §3, §4
# [11] = tested on: SK-BR-3; experiment: Cancer cell growth inhibition, SK-BR-3; type: cell-based, human; settings: SK-BR-3, Breast Cancer, 72 h treatment
# Method: as §1, §2, §3, §4
# [12] = tested on: KB; experiment: Cancer cell growth inhibition, KB; type: cell-based, human; settings: Oral Cancer, 72 h treatment
# Method: as §1, §2, §3, §4
# [13] = tested on: MDA-MB-231; experiment: Cancer cell growth inhibition, MDA-MB-231; type: cell-based, human; settings: MDA-MB-231, Breast Cancer, 72 h treatment
# Method: as §1, §2, §3, §4
# [14] = tested on: CNE2; experiment: Cancer cell growth inhibition, CNE2; type: cell-based, human; settings: CNE2, Nasopharyngeal Cancer, 72 h treatment
# Method: as §1, §2, §3, §4
# [15] = tested on: OVCAR3; experiment: Cancer cell growth inhibition, OVCAR3; type: cell-based, human; settings: OVCAR3, Ovarian Cancer, 72 h treatment
# Method: as §1, §2, §3, §4
# [16] = tested on: PANC-1; experiment: Cancer cell growth inhibition, PANC-1; type: cell-based, human; settings: PANC-1, Pancreatic Cancer, 72 h treatment
# Method: as §1, §2, §3, §4
# [17] = tested on: MCF-7; experiment: Cancer cell growth inhibition, MCF-7; type: cell-based, human; settings: MCF-7, Breast Cancer, 72 h treatment
# Method: as §1, §2, §3, §4
# [18] = tested on: DLD-1; experiment: Cancer cell growth inhibition, DLD-1; type: cell-based, human; settings: DLD-1, Colorectal Cancer, 72 h treatment
# Method: as §1, §2, §3, §4
# [19] = tested on: BGC823; experiment: Cancer cell growth inhibition, BGC823; type: cell-based, human; settings: BGC823, Gastric Cancer, 72 h treatment
# Method: as §1, §2, §3, §4
# [20] = tested on: PC-3; experiment: Cancer cell growth inhibition, PC-3; type: cell-based, human; settings: PC-3, Prostate Cancer, 72 h treatment
# Method: as §1, §2, §3, §4
# [21] = tested on: LoVo; experiment: Cancer cell growth inhibition, LoVo; type: cell-based, human; settings: Colorectal Cancer, 72 h treatment
# Method: as §1, §2, §3, §4
# [22] = tested on: DU145; experiment: Cancer cell growth inhibition, DU145; type: cell-based, human; settings: DU145, Prostate Cancer, 72 h treatment
# Method: as §1, §2, §3, §4
# [23] = tested on: U87MG; experiment: Cancer cell growth inhibition, U87MG; type: cell-based, human; settings: Glioblastoma, 72 h treatment
# Method: as §1, §2, §3, §4
# [24] = tested on: K562; experiment: Cancer cell growth inhibition, K562; type: cell-based, human; settings: K562, CML, 72 h treatment
# Method: as §1
# as §2, with “The cell viability was over 98% by trypan blue exclusion.” left out
# as §3, §4
# [25] = tested on: HT-29; experiment: Cancer cell growth inhibition, HT-29; type: cell-based, human; settings: HT-29, Colorectal Cancer, 72 h treatment
# Method: as §1, §2, §3, §4
# [26] = tested on: A375; experiment: Cancer cell growth inhibition, A375; type: cell-based, human; settings: A375, Melanoma, 72 h treatment
# Method: as §1, §2, §3, §4
# [27] = tested on: SW480; experiment: Cancer cell growth inhibition, SW480; type: cell-based, human; settings: SW480, Colorectal Cancer, 72 h treatment
# Method: as §1, §2, §3, §4
# [28] = tested on: Calu-6; experiment: Cancer cell growth inhibition, Calu-6; type: cell-based, human; settings: Calu-6, Lung Cancer, 72 h treatment
# Method: as §1, §2, §3, §4
# [29] = tested on: MCG803; experiment: Cancer cell growth inhibition, MCG803; type: cell-based, human; settings: MCG803, Gastric Cancer, 72 h treatment
# Method: as §1, §2, §3, §4
# [30] = tested on: SW620; experiment: Cancer cell growth inhibition, SW620; type: cell-based, human; settings: SW620, Colorectal Cancer, 72 h treatment
# Method: as §1, §2, §3, §4
# [31] = tested on: LNCaP; experiment: Cancer cell growth inhibition, LNCaP; type: cell-based, human; settings: Prostate Cancer, 72 h treatment
# Method: as §1, §2, §3, §4
# [32] = tested on: Hep3B; experiment: Cancer cell growth inhibition, Hep3B; type: cell-based, human; settings: Liver Cancer, 72 h treatment
# Method: as §1, §2, §3, §4
# [33] = target: Human HDAC4 (Homo sapiens (Human), UniProt P56524); experiment: HDAC4 fluorogenic peptide deacetylation assay; type: biochemical; settings: human HDAC4, 50 μM substrate, 30° C., 2 h; read-out: IC50 (nM) of enzyme activity HDAC4
# Chain of Human HDAC4 (P56524 627-1084 limits assumed): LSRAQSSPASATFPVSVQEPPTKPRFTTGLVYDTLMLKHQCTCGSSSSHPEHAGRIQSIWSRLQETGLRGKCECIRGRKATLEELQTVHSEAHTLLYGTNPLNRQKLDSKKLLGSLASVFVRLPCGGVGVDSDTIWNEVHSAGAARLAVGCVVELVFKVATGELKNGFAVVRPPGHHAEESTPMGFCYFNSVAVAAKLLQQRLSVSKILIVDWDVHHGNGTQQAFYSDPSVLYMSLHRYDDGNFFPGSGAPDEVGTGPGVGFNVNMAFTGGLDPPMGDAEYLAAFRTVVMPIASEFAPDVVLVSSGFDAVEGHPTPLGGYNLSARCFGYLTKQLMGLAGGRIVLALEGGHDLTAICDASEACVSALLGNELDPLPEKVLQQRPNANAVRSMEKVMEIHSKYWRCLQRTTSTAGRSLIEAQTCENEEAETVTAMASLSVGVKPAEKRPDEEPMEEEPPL
# [34] = target: Human HDAC11 (Homo sapiens (Human), UniProt Q96DB2); experiment: HDAC11 fluorogenic peptide deacetylation assay; type: biochemical; settings: human HDAC11, 50 μM substrate, 30° C., 2 h; read-out: IC50 (nM) of enzyme activity HDAC11
# Chain of Human HDAC11 (Q96DB2 whole entry): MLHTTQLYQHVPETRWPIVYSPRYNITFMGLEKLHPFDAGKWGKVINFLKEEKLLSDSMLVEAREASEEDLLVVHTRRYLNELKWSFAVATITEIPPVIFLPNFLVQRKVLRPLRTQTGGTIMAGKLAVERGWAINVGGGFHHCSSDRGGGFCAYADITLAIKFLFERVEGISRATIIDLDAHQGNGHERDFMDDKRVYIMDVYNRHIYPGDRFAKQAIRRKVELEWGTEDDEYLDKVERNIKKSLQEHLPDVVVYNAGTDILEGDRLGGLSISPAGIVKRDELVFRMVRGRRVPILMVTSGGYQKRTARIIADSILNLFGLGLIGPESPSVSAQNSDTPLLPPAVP
# [35] = target: Human HDAC6 (Homo sapiens (Human), UniProt Q9UBN7); experiment: HDAC6 fluorogenic peptide deacetylation assay; type: biochemical; settings: human HDAC6, 50 μM substrate, 30° C., 2 h; read-out: IC50 (nM) of enzyme activity HDAC6
# Chain of Human HDAC6 (Q9UBN7 whole entry): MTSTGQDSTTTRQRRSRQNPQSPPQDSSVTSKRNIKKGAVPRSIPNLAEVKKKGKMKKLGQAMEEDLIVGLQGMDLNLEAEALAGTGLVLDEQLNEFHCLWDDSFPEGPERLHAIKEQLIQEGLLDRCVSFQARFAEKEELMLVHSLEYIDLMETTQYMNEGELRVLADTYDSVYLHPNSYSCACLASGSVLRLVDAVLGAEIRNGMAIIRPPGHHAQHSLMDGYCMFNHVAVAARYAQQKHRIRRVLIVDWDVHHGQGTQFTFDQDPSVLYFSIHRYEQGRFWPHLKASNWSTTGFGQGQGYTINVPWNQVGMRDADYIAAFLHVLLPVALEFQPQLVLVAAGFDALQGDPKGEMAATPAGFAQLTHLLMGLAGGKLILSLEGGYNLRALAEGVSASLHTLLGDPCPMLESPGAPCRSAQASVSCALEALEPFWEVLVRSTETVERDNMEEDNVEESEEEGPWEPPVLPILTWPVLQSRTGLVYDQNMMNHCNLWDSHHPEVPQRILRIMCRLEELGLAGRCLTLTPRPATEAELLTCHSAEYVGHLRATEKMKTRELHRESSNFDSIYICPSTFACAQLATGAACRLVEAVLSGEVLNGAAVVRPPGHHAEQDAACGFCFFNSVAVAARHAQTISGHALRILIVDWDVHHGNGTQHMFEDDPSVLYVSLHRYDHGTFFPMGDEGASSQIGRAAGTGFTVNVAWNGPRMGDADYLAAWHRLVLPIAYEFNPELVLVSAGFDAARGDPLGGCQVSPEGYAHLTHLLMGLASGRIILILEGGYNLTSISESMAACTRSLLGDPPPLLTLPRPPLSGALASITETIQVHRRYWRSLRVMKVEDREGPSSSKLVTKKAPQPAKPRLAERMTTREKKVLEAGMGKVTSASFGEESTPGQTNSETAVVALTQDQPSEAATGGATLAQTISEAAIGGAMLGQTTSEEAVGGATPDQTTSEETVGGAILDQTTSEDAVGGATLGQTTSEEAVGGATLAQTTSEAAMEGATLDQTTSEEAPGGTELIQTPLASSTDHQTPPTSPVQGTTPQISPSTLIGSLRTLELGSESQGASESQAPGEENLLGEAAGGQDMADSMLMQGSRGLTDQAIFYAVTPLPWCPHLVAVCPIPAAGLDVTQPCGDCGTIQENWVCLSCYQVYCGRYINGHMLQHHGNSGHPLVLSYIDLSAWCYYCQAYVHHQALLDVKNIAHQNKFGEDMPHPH
# [36] = target: Human HDAC1 (Homo sapiens (Human), UniProt Q13547); experiment: HDAC1 fluorogenic peptide deacetylation assay; type: biochemical; settings: human HDAC1, 50 μM substrate, 30° C., 2 h; read-out: IC50 (nM) of enzyme activity HDAC1
# Chain of Human HDAC1 (Q13547 whole entry): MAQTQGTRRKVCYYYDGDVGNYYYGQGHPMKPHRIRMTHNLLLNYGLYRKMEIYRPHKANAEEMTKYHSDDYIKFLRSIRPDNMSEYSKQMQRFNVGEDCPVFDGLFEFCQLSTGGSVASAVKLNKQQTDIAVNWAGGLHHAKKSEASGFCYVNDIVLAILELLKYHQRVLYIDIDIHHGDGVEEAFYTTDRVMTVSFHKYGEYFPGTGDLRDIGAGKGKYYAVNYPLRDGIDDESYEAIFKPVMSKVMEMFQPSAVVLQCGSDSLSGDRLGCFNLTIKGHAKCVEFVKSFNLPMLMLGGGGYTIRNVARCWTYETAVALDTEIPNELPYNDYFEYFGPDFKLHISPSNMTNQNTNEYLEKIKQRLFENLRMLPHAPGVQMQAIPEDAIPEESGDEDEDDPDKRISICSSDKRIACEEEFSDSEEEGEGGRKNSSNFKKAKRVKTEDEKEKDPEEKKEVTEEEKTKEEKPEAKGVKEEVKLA
# [37] = target: Human HDAC10 (Homo sapiens (Human), UniProt Q969S8); experiment: HDAC10 fluorogenic peptide deacetylation assay; type: biochemical; settings: human HDAC10, 50 μM substrate, 30° C., 2 h; read-out: IC50 (nM) of enzyme activity HDAC10
# Chain of Human HDAC10 (Q969S8 1-631): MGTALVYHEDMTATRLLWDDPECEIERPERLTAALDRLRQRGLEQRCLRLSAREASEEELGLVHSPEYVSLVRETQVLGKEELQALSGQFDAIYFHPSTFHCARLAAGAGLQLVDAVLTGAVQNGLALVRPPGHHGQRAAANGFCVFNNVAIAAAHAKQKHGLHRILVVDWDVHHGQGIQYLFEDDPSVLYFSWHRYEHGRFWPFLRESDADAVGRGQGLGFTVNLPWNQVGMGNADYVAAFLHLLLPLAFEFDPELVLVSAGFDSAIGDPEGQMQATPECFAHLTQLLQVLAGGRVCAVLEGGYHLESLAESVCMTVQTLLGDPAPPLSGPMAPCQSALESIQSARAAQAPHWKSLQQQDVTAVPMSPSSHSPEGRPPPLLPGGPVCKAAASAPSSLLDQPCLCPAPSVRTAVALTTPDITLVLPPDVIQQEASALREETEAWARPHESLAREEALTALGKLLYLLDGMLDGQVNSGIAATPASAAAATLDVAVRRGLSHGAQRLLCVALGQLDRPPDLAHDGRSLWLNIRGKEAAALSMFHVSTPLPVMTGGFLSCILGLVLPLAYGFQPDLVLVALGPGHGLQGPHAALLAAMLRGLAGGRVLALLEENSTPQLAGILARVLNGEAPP
# [38] = target: Human HDAC2 (Homo sapiens (Human), UniProt Q92769); experiment: HDAC2 fluorogenic peptide deacetylation assay; type: biochemical; settings: human HDAC2, 50 μM substrate, 30° C., 2 h; read-out: IC50 (nM) of enzyme activity HDAC2
# Chain of Human HDAC2 (Q92769 whole entry): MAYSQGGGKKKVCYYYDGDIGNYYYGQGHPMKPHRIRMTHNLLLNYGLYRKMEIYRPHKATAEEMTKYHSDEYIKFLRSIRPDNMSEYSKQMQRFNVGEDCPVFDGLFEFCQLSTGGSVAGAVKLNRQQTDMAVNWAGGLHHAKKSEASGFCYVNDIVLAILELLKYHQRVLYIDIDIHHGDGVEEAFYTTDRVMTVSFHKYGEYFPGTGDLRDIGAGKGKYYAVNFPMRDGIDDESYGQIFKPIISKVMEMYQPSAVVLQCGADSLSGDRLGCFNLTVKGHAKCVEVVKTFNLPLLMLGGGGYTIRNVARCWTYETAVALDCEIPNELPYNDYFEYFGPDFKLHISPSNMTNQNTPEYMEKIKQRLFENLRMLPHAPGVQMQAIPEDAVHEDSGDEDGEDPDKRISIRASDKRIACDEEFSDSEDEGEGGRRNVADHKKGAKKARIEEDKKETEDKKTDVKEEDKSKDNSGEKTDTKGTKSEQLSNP
# [39] = tested on: Nuclear Extract from HeLa Cells; experiment: HeLa Nuclear Extract HDAC assay; type: biochemical, human; settings: 50 μM substrate, 30° C., 2 h, read-out: IC50 (nM) of enzyme activity HeLa
# [40] = target: Human HDAC8 (Homo sapiens (Human), UniProt Q9BY41); experiment: HDAC8 fluorogenic peptide deacetylation assay; type: biochemical; settings: human HDAC8, 50 μM substrate, 30° C., 2 h; read-out: IC50 (nM) of enzyme activity HDAC8
# Chain of Human HDAC8 (Q9BY41 whole entry): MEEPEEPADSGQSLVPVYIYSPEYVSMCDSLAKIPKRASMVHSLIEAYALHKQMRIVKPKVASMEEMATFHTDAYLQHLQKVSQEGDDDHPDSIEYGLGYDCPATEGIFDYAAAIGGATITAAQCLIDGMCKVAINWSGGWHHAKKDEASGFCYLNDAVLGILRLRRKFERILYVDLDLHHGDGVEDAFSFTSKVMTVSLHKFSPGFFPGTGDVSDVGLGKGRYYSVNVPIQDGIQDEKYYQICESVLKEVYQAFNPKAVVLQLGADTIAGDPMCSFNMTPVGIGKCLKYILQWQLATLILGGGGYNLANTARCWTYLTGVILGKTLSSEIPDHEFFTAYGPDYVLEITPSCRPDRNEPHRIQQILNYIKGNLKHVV
# [41] = target: Human HDAC5 (Homo sapiens (Human), UniProt Q9UQL6); experiment: HDAC5 fluorogenic peptide deacetylation assay; type: biochemical; settings: human HDAC5, 50 μM substrate, 30° C., 2 h; read-out: IC50 (nM) of enzyme activity HDAC5
# [42] = target: Human HDAC7 (Homo sapiens (Human), UniProt Q8WUI4); experiment: HDAC7 fluorogenic peptide deacetylation assay; type: biochemical; settings: human HDAC7, 50 μM substrate, 30° C., 2 h; read-out: IC50 (nM) of enzyme activity HDAC7
# Chain of Human HDAC7 (Q8WUI4 479-952 limits assumed): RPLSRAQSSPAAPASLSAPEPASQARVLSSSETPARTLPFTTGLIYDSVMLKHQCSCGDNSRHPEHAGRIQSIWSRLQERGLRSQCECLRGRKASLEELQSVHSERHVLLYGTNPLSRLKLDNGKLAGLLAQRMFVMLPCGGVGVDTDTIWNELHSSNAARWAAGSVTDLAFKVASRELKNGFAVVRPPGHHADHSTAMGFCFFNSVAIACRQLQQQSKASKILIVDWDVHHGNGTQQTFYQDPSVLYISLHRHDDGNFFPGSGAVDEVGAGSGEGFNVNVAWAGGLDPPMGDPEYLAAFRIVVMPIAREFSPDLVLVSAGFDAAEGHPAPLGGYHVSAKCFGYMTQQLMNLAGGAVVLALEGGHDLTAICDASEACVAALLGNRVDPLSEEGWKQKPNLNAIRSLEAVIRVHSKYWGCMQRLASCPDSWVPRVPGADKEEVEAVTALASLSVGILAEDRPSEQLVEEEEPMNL
# [43] = target: Human HDAC3/NcoR2 (Homo sapiens (Human), UniProt O15379); experiment: HDAC3 fluorogenic peptide deacetylation assay; type: biochemical; settings: human HDAC3/NcoR2, 50 μM substrate, 30° C., 2 h; read-out: IC50 (nM) of enzyme activity HDAC3
# Chain of Human HDAC3/NcoR2 (O15379 whole entry): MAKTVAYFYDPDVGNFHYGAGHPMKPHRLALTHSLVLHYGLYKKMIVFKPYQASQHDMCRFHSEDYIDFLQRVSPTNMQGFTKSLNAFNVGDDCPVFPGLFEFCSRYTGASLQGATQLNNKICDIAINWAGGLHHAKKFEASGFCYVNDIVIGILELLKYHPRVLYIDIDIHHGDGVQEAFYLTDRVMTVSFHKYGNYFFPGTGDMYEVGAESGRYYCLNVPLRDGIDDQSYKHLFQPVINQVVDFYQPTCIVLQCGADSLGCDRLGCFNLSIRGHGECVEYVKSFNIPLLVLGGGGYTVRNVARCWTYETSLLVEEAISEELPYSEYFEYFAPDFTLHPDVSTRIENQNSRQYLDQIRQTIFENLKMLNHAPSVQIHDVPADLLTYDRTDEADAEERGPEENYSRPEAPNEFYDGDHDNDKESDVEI
# Chain of Human HDAC3/NcoR2 (Q9Y618 395-489 partner): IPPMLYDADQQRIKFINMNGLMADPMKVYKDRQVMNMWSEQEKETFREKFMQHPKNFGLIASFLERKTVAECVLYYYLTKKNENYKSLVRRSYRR
# [44] = target: Human HDAC9 (Homo sapiens (Human), UniProt Q9UKV0); experiment: HDAC9 fluorogenic peptide deacetylation assay; type: biochemical; settings: human HDAC9, 50 μM substrate, 30° C., 2 h; read-out: IC50 (nM) of enzyme activity HDAC9
compound,measurement,setting,value
"N.N.[Cl][Pt][Cl] [Cisplatin, reference compound]",pIC50,[1],5.16
same,pIC50,[2],5.35
same,pIC50,[3],5.98
same,pIC50,[4],5.29
same,pIC50,[5],5.08
same,pIC50,[6],5.54
same,pIC50,[7],5.36
same,pIC50,[8],4.55
same,pIC50,[9],5.21
same,pIC50,[10],5.02
same,pIC50,[11],5.76
same,pIC50,[12],5.40
same,pIC50,[13],4.00
same,pIC50,[14],4.93
same,pIC50,[15],4.93
same,pIC50,[16],4.61
same,pIC50,[17],5.11
same,pIC50,[18],4.74
same,pIC50,[19],5.89
same,pIC50,[20],4.94
same,pIC50,[21],5.33
same,pIC50,[22],5.40
same,pIC50,[23],5.12
same,pIC50,[24],4.88
same,pIC50,[25],4.83
same,pIC50,[26],5.18
same,pIC50,[27],4.97
same,pIC50,[28],5.79
same,pIC50,[29],4.94
same,pIC50,[30],4.07
same,pIC50,[31],5.05
same,pIC50,[32],5.40
"Nc1ccccc1NC(=O)c1ccc(CNC(=O)c2[nH]c(-c3ccc(O)cc3)cc2-c2ccoc2)cc1 [Example 37, N-(4-{[(2-aminophenyl)amino)carbonyl]benzyl}-3-(3-furyl)-5-(4-hydroxyphenyl)-1H-pyrrole-2-carboxamide]",IC50,[33],> 5000 nM
same,IC50,[34],5660 nM
same,IC50,[35],2890 nM
same,IC50,[36],332 nM
same,IC50,[37],8550 nM
same,IC50,[38],1840 nM
same,IC50,[39],1080 nM
same,IC50,[40],> 5000 nM
same,IC50,[41],8640 nM
same,IC50,[42],> 5000 nM
same,IC50,[43],5830 nM
same,IC50,[44],> 5000 nM

# From patent US8685992B2, “Histone deacetylase inhibitors based simultaneously on trisubstituted 1H-pyrroles and aromatic and heteroaromatic spacers” (Universidad del País Vasco, priority 2009, dated 2014)
